Activity calls are given as the source filed them. Rule as the data show it, for most assays here: actives have a measured Kd and inactives only a lower limit.
Assays:
[1] = biological target: T1, Serine/threonine-protein kinase TAO2 (Homo sapiens, UniProt Q9UL54)
T1 sequence (Q9UL54 whole entry): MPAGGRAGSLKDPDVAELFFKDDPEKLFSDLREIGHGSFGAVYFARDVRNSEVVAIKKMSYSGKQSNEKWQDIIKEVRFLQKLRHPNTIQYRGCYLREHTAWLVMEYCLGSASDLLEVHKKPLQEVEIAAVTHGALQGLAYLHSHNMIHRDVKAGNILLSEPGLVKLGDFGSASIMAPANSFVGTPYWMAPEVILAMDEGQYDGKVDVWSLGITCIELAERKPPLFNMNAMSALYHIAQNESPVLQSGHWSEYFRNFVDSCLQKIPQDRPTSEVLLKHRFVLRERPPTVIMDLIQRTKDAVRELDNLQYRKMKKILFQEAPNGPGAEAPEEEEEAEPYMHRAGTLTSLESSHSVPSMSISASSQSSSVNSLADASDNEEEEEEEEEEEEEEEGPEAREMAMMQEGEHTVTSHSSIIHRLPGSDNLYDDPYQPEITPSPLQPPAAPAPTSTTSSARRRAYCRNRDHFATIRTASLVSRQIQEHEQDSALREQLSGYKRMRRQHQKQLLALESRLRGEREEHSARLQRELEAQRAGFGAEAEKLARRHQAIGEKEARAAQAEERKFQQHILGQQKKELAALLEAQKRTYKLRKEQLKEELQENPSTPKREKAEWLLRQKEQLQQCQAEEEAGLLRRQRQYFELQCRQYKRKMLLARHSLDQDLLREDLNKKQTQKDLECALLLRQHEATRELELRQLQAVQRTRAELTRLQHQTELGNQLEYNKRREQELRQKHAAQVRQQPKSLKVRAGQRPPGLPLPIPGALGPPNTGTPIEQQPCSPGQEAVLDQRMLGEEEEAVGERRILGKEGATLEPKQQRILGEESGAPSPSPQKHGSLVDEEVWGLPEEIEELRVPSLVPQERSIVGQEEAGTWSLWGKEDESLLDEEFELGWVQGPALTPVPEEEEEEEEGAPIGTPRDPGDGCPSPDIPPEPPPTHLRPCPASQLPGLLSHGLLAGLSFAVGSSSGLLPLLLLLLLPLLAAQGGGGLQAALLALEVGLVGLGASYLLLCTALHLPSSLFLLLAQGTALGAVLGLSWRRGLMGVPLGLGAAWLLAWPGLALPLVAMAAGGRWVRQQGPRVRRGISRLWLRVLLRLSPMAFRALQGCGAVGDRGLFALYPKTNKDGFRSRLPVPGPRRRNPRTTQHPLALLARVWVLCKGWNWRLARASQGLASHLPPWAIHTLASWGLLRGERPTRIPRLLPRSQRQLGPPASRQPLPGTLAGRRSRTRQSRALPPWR

[2] = biological target: Serine/threonine-protein kinase/endoribonuclease IRE1 (Homo sapiens, UniProt O75460)
Serine/threonine-protein kinase/endoribonuclease IRE1, sequence (O75460 whole entry): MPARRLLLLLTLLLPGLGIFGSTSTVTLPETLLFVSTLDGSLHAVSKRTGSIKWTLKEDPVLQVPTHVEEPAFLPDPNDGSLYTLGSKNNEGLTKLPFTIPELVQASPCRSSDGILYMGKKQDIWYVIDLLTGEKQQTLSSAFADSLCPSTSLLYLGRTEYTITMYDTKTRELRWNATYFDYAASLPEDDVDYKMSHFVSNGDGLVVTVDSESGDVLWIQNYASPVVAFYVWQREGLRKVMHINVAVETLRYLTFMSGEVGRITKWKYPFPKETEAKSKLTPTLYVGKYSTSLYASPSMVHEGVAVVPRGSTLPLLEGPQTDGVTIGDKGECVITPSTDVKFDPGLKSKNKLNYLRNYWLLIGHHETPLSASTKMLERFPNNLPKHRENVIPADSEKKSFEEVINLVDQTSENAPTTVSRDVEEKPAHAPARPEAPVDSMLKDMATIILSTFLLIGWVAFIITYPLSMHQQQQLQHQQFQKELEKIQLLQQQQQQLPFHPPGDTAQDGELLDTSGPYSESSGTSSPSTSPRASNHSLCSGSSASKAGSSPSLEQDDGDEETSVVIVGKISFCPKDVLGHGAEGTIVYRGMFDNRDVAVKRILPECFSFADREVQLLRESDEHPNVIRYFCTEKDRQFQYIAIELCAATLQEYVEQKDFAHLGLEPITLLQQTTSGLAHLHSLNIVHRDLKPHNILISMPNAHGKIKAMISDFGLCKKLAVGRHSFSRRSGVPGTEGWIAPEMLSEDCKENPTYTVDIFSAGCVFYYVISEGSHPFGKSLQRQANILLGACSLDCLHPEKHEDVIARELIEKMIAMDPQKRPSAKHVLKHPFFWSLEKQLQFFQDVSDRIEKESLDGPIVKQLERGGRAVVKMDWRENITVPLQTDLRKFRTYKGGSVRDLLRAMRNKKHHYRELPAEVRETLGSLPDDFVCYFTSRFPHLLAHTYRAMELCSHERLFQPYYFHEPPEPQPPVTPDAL

[3] = biological target: Cyclin-dependent kinase 2 (Homo sapiens, UniProt P24941)
[4] = biological target: T2, Ferrochelatase, mitochondrial (Homo sapiens, UniProt P22830)
T2 sequence (P22830 whole entry): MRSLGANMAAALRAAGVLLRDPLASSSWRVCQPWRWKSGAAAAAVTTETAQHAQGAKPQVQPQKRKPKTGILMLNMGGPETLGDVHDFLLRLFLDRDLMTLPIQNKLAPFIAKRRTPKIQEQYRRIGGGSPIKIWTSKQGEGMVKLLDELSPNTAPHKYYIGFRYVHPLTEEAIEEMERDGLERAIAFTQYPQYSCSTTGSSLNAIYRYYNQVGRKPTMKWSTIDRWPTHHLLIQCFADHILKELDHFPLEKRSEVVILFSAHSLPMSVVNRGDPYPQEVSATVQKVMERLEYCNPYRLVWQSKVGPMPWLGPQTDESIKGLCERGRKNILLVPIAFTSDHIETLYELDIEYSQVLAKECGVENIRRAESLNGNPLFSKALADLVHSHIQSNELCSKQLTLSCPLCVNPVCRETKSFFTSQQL

[5] = biological target: T3, Structural maintenance of chromosomes protein 1A (Homo sapiens, UniProt Q14683)
T3 sequence (Q14683 whole entry): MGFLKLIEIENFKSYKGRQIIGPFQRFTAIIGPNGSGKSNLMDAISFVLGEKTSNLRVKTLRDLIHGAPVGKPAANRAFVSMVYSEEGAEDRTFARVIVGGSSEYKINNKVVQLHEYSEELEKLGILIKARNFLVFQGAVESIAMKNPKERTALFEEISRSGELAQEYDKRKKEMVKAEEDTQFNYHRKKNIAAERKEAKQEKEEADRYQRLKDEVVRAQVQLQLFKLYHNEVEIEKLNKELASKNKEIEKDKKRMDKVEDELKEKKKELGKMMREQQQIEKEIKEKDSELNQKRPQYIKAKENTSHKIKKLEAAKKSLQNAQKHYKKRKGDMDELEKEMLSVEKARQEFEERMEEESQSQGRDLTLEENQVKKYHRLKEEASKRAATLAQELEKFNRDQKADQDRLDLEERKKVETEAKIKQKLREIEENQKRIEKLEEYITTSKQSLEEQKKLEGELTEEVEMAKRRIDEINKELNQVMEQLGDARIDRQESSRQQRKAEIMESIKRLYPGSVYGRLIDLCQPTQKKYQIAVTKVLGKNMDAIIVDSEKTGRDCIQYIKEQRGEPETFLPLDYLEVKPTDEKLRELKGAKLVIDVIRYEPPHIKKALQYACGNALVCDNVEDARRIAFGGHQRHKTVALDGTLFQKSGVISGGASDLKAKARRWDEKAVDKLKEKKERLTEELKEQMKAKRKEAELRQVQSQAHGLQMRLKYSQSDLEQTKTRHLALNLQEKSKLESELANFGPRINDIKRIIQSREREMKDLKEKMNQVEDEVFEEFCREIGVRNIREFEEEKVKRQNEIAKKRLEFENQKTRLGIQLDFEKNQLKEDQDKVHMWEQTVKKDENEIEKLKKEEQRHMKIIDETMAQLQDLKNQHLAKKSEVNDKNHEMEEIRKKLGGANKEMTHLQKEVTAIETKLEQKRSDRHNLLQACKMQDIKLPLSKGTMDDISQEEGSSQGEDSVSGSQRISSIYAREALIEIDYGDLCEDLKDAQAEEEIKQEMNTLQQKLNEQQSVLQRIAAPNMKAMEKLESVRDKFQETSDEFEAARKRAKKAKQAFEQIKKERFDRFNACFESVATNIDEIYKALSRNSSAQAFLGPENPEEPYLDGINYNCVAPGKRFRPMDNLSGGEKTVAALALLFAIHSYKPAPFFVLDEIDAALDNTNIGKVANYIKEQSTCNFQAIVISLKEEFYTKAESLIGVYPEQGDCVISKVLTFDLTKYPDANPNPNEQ

[6] = biological target: cAMP-dependent protein kinase catalytic subunit beta (Homo sapiens, UniProt P22694)
Also: in the data inactive means no Kd found up to 30 µM.

| Kd [1] | Kd [2] | Kd [3] | Kd [4] | Kd [5] | Kd [6] | Compound |
| --- | --- | --- | --- | --- | --- | --- |
| > 30 µM (inactive) | > 30 µM (inactive) | > 30 µM (inactive) | > 30 µM (inactive) | > 30 µM (inactive) | > 30 µM (inactive) | O=S(=O)(c1cccc2c(O)nccc12)N1CCCNCC1 [HYDROXYFASUDIL] |
| > 30 µM (inactive) | > 30 µM (inactive) | > 30 µM (inactive) | > 30 µM (inactive) | > 30 µM (inactive) | > 30 µM (inactive) | CC[C@@](C)(Nc1ccnc(-c2c[nH]c3ncccc23)n1)C(=O)NCC(F)(F)F [DECERNOTINIB] |
| > 30 µM (inactive) | > 30 µM (inactive) | > 30 µM (inactive) | > 30 µM (inactive) | > 30 µM (inactive) | > 30 µM (inactive) | CCc1cc2c(cc1N1CCC(N3CCOCC3)CC1)C(C)(C)c1[nH]c3cc(C#N)ccc3c1C2=O [ALECTINIB] |
| > 30 µM (inactive) | > 30 µM (inactive) | > 30 µM (inactive) | > 30 µM (inactive) | > 30 µM (inactive) | > 30 µM (inactive) | COc1cc(Nc2ncc(F)c(Nc3ccc4c(n3)N(COP(=O)(O)O)C(=O)C(C)(C)O4)n2)cc(OC)c1OC [FOSTAMATINIB] |
| > 30 µM (inactive) | > 30 µM (inactive) | > 30 µM (inactive) | > 30 µM (inactive) | > 30 µM (inactive) | > 30 µM (inactive) | Cc1ccc(C(=O)Nc2ccc(Oc3cc4cnn(C)c4cc3-c3cn[nH]c3)c(F)c2)c(=O)n1-c1ccc(F)cc1 [MERESTINIB] |
| > 30 µM (inactive) | > 30 µM (inactive) | > 30 µM (inactive) | > 30 µM (inactive) | > 30 µM (inactive) | > 30 µM (inactive) | O=C(NOC[C@H](O)CO)c1ccc(F)c(F)c1Nc1ccc(I)cc1F [MIRDAMETINIB] |
| > 30 µM (inactive) | > 30 µM (inactive) | > 30 µM (inactive) | > 30 µM (inactive) | > 30 µM (inactive) | > 30 µM (inactive) | CCOc1ccn(-c2ccc(F)cc2)c(=O)c1C(=O)Nc1ccc(Oc2ccnc(N)c2Cl)c(F)c1 [BMS-777607] |
| > 30 µM (inactive) | > 30 µM (inactive) | > 30 µM (inactive) | 76.4 µM | > 30 µM (inactive) | > 30 µM (inactive) | C[C@@H]1COC(Nc2ccc3ncnc(Nc4ccc(OCc5nccs5)c(Cl)c4)c3c2)=N1 [VARLITINIB] |
| > 30 µM (inactive) | > 30 µM (inactive) | > 30 µM (inactive) | 2.63 µM (active) | > 30 µM (inactive) | > 30 µM (inactive) | COc1cc2nccc(Oc3ccc(NC(=O)C4(C(=O)Nc5ccc(F)cc5)CC4)cc3)c2cc1OC [CABOZANTINIB] |
| > 30 µM (inactive) | > 30 µM (inactive) | > 30 µM (inactive) | > 30 µM (inactive) | > 30 µM (inactive) | > 30 µM (inactive) | CNC(=O)c1cccc(-c2ccc3c(N4CCOC[C@@H]4C)nc(N4CCOC[C@@H]4C)nc3n2)c1 [VISTUSERTIB] |
| > 30 µM (inactive) | > 30 µM (inactive) | > 30 µM (inactive) | > 30 µM (inactive) | > 30 µM (inactive) | > 30 µM (inactive) | S=C(NCc1ccc2c(c1)OCO2)N1CCN(c2ncnc3c2oc2ccccc23)CC1 [AMUVATINIB] |
| > 30 µM (inactive) | > 30 µM (inactive) | > 30 µM (inactive) | 3.11 µM (active) | > 30 µM (inactive) | > 30 µM (inactive) | COc1ccc(-c2ccc3ncc4c(c3c2)n(-c2ccc(N3CCNCC3)c(C(F)(F)F)c2)c(=O)n4C)cn1 [BGT-226 FREE BASE] |
| > 30 µM (inactive) | > 30 µM (inactive) | > 30 µM (inactive) | > 30 µM (inactive) | > 30 µM (inactive) | > 30 µM (inactive) | CC(C)(O)CC(=O)NCCn1ccc2ncnc(Nc3ccc(Oc4cccc(C(F)(F)F)c4)c(Cl)c3)c21 [TAK-285] |
| > 30 µM (inactive) | > 30 µM (inactive) | > 30 µM (inactive) | 3.97 µM | > 30 µM (inactive) | > 30 µM (inactive) | COc1cc2ncnc3c2cc1OCCCCCN(C)Cc1ccc(Br)cc1N3 [JNJ-26483327] |
| > 30 µM (inactive) | > 30 µM (inactive) | > 30 µM (inactive) | > 30 µM (inactive) | > 30 µM (inactive) | > 30 µM (inactive) | O=C(Nc1ccc(OC(F)(F)F)cc1)c1sccc1NCc1ccnc2ccccc12 [OSI-930] |
| > 30 µM (inactive) | > 30 µM (inactive) | > 30 µM (inactive) | > 30 µM (inactive) | > 30 µM (inactive) | > 30 µM (inactive) | CCN(CCCOc1ccc2c(Nc3cc(CC(=O)Nc4cccc(F)c4)n[nH]3)ncnc2c1)CCOP(=O)(O)O [BARASERTIB] |

| Compound | Kd [1] | Kd [2] | Kd [3] | Kd [4] | Kd [5] | Kd [6] |
| --- | --- | --- | --- | --- | --- | --- |
| COCCN1CCN(Cc2ccc(-c3n[nH]c4c3C(=O)c3c(NC(=O)NN5CCOCC5)cccc3-4)cc2)CC1 [RGB-286638] | > 30 µM (inactive) | > 30 µM (inactive) | 0.072 µM (active) | > 30 µM (inactive) | > 30 µM (inactive) | > 30 µM (inactive) |
| C=CC(=O)Nc1cc(Nc2nccc(-c3cn(C)c4ccccc34)n2)c(OC)cc1N(C)CCN(C)C [OSIMERTINIB] | > 30 µM (inactive) | > 30 µM (inactive) | > 30 µM (inactive) | > 30 µM (inactive) | > 30 µM (inactive) | > 30 µM (inactive) |
| Cc1c(Cn2c(C)nc3c(C(=O)O)cc(N4CCOCC4)cc32)cccc1C(F)(F)F [GSK-2636771] | > 30 µM (inactive) | > 30 µM (inactive) | > 30 µM (inactive) | > 30 µM (inactive) | > 30 µM (inactive) | > 30 µM (inactive) |

Reference: ChEMBL document CHEMBL3991601, “The target landscape of clinical kinase drugs” (Science, 2017)
